Laboratory results reported in patent US7232690B1, “Method and device for detecting and isolating pharmacological compounds being contained in substance mixtures” (LTS Lohmann Therapie-Systeme AG, priority 1999, dated 2007).

How the values were obtained:
β2-adrenoreceptor = β2-adrenoreceptor (Homo sapiens, UniProt P07550); assay: Ultrafiltration target-binding test of extract of taraxacum with β2-adrenoreceptor membrane preparation (Example 3)
Description: Substance used for the assays: • a) extr. taraxaci spir. sicc.
In the assays, the extract of taraxacum and the membrane preparation were combined in different stoichiometric ratios, dissolved in 200 μl of binding buffer (150 mM of NaCl, 50 mM of tris, pH 8.2 in water).
The receptor-ligand binding was completed by 30-minute-long incubation of the mixture at 30-34° C. The solutions were then placed on a Microcon 10 centrifugal filter and centrifuged at 9981×g for 15 min or until dryness of the filter. […] After two washing steps with binding buffer, the complexes present on the filter were separated by treatment with 200 μl of TFA (1/49.5/49.5).
The eluates from the following four filtration steps were centrifuged under vacuum until dryness, and the substances obtained were dissolved by means of ultrasound in 10 μl of the mobile phase of the HPLC (cf. Example 1), shortly before LC analysis.

Thrombin = Thrombin (Homo sapiens, UniProt P00734); assay: Thrombin inhibition constant (Ki); format: biochemical; settings: read-out: Ki [μmol/l] Thrombin
serine protease trypsin = assay: Ultrafiltration target-binding test of non-equimolar amidinophenylalanine mixture with trypsin (Example 2); settings: applied 6 8.4, 7 41.25, 10 2.5 μmol/l
Description: Incubation of the substance library and the inhibitor with thrombin took place at room temperature within 1 hour; solvent: 0.9% of NaCl in H2O. The separation of the protein-ligand complexes formed was accomplished by ultrafiltration (centrifugal). All filtration procedures and washes were carried out until dryness of the filters.
Filter: Microcon 10 (Amicon)
Centrifugation conditions: 9981×g, room temperature
Washing steps: 2×, each with 150 μl of 0.9% NaCl in H2O, 4° C.
Ultrafiltration and analysis of the filtrate were followed by washing steps and the liberation of the ligand (the active chemical substance) from the protein-ligand complex retained on the filter by treatment with 200 μl of water/methanol/TFA (49.5/49.5/1) at room temperature.
The blind sample (without thrombin) was treated analogously in all steps so that a comparison of the filtrates was possible. The filtrates obtained in all steps were dried by means of a speed-VAC concentrator, and later dissolved in the corresponding HPLC flow agent of defined amount applying ultrasound and agitation.
Identification of the ligands was accomplished by analytic HPLC: stationary phase Hypersil C 18 BDS, 3 μm, 150*0.3 mm, Fusica (LC Packings)—mobile phase: acetonitrile/water/TFA (35/65/0.01), isocratic, 5 μL/min, λ=[…].
The trypsin inhibitors of 3-amidinophenylalanine represented in the following by their structural formulae, were used as chemical substances, and the serine protease trypsin as target:
The experiments were performed as described in Example 1.

[1] = Sample 351, no receptor, extract 1.5 mg (7.5 g/l)
[2] = Sample 355, receptor 1.04 pmol (5.2 nmol/l), extract 1.5 pmol (7.5 nmol/l)
[3] = Sample 356, receptor 1.04 pmol (5.2 nmol/l), extract 1.5 pmol (7.5 nmol/l)
[4] = Sample 360, no receptor, extract 0.3 mg (1.5 g/l)
[5] = Sample 361, receptor 1.04 pmol (5.2 nmol/l), extract 0.3 mg (1.5 g/l)
[6] = Sample 362, no receptor, extract 0.6 mg (3 g/l)
[7] = Sample 363, receptor 1.04 pmol (5.2 nmol/l), extract 0.6 mg (3 g/l)
[8] = Sample 364, no receptor, extract 1.0 mg (5.0 g/l)
[9] = Sample 365, receptor 1.04 pmol (5.2 nmol/l), extract 1.0 mg (5.0 g/l)
[10] = Sample 366, receptor 1.04 pmol (5.2 nmol/l), extract 1.5 mg (7.5 g/l)
[11] = Sample 367, receptor 1.04 pmol (5.2 nmol/l), extract 1.5 mg (7.5 g/l)
[12] = Sample 369, receptor 1.04 pmol (5.2 nmol/l), extract 1.5 mg (7.5 g/l)
[13] = Sample 373, receptor 1.04 pmol (5.2 nmol/l), extract 1.5 mg (7.5 g/l)
[14] = Sample 374, receptor 0.52 pmol (2.6 nmol/l), extract 1.5 mg (7.5 g/l)
[15] = Sample 375, receptor 0.26 pmol (1.3 nmol/l), extract 1.5 mg (7.5 g/l)

β2-adrenoreceptor, sequence (P07550 whole entry): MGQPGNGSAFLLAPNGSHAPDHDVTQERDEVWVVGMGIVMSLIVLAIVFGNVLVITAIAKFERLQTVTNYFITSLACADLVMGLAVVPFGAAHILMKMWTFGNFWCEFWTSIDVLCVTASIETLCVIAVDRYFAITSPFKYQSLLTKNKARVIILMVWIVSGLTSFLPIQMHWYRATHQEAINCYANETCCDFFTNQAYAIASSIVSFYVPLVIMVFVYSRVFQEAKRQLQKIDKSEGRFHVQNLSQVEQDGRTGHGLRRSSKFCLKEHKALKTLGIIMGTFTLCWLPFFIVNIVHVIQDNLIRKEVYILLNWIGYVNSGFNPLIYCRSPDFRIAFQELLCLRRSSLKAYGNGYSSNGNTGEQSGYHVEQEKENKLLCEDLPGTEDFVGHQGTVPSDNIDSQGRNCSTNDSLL

## O=C(/C=C/c1ccc(O)c(O)c1)OC(C(=O)O)C(O)C(=O)O (stereo not drawn) [Substance L3, trans-caftarinic acid]
β2-adrenoreceptor; [1]
  1st Wash: 51.0 nmol/L
  2nd Wash: 8.0 nmol/L
  Filtrate: 740.3 nmol/L
  Liberation: 11.9 nmol/L
β2-adrenoreceptor; [2]
  1st Wash: 88.8 nmol/L
  2nd Wash: 12.9 nmol/L
  Filtrate: 353.5 nmol/L
  Liberation: 15.8 nmol/L
β2-adrenoreceptor; [3]
  1st Wash: 79.0 nmol/L
  2nd Wash: 9.9 nmol/L
  Filtrate: 961.9 nmol/L
  Liberation: 26.3 nmol/L
β2-adrenoreceptor; [4]
  1st Wash: 22.7 nmol/L
  2nd Wash: 0 nmol/L
  Filtrate: 411.5 nmol/L
  Liberation: 8.1 nmol/L
β2-adrenoreceptor; [5]
  1st Wash: 16.5 nmol/L
  2nd Wash: 29.6 nmol/L
  Filtrate: 537.0 nmol/L
  Liberation: 11.2 nmol/L
β2-adrenoreceptor; [6]
  1st Wash: 20.5 nmol/L
  2nd Wash: 5.6 nmol/L
  Filtrate: 650.1 nmol/L
  Liberation: 3.2 nmol/L
β2-adrenoreceptor; [7]
  1st Wash: 54.4 nmol/L
  2nd Wash: 0 nmol/L
  Filtrate: 736.9 nmol/L
  Liberation: 8.7 nmol/L
β2-adrenoreceptor; [8]
  1st Wash: 36.9 nmol/L
  2nd Wash: 3.0 nmol/L
  Filtrate: 1034.4 nmol/L
  Liberation: 5.3 nmol/L
β2-adrenoreceptor; [9]
  1st Wash: 51.7 nmol/L
  2nd Wash: 8.6 nmol/L
  Filtrate: 1221.4 nmol/L
  Liberation: 9.8 nmol/L
β2-adrenoreceptor; [10]
  1st Wash: 102.8 nmol/L
  2nd Wash: 2.3 nmol/L
  Filtrate: 2088.5 nmol/L
  Liberation: 7.6 nmol/L
β2-adrenoreceptor; [11]
  1st Wash: 46.2 nmol/L
  2nd Wash: 15.6 nmol/L
  Filtrate: 2310.8 nmol/L
  Liberation: 6.3 nmol/L
β2-adrenoreceptor; [12]
  1st Wash: 90.8 nmol/L
  2nd Wash: 41.8 nmol/L
  Filtrate: 2381.4 nmol/L
  Liberation: 7.0 nmol/L
β2-adrenoreceptor; [13]
  1st Wash: 91.7 nmol/L
  2nd Wash: 26.6 nmol/L
  Filtrate: 2450.0 nmol/L
  Liberation: 36.2 nmol/L
β2-adrenoreceptor; [14]
  1st Wash: 44.0 nmol/L
  2nd Wash: 7.4 nmol/L
  Filtrate: 2593.2 nmol/L
  Liberation: 25.3 nmol/L
β2-adrenoreceptor; [15]
  1st Wash: 39.7 nmol/L
  2nd Wash: 19.6 nmol/L
  Filtrate: 2252.1 nmol/L
  Liberation: 19.0 nmol/L

## N=C(N)c1cccc(CC(NS(=O)(=O)c2ccc3ccccc3c2)C(=O)N2CCCCC2)c1 (stereo not drawn) [Substance 7]
Thrombin
  Ki: 0.065 µmol/L
Serine protease trypsin; Sample 261, without trypsin
  1st Wash: 3.13 µmol/L
  2nd Wash: 0.26 µmol/L
  Filtrate: 31.57 µmol/L
  Liberation: 0.13 µmol/L
Serine protease trypsin; Sample 262, trypsin 50 μmol/l
  1st Wash: 3.68 µmol/L
  2nd Wash: 1.29 µmol/L
  Filtrate: 22.22 µmol/L
  Liberation: 8.49 µmol/L
